Experimental findings from patent US20250276993A1, “PSEUDO-DISACCHARIDE COMPOUNDS” (UNIVERSITEIT LEIDEN, priority 2022, published 2025) are described below.

The target of one experiment is T1, rHPSE (Homo sapiens, UniProt Q9Y251).
T1 sequence (Q9Y251 36-109 limits assumed): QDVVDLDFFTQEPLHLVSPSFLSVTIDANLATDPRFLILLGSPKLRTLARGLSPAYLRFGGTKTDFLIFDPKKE
T1 sequence (Q9Y251 158-543 limits assumed): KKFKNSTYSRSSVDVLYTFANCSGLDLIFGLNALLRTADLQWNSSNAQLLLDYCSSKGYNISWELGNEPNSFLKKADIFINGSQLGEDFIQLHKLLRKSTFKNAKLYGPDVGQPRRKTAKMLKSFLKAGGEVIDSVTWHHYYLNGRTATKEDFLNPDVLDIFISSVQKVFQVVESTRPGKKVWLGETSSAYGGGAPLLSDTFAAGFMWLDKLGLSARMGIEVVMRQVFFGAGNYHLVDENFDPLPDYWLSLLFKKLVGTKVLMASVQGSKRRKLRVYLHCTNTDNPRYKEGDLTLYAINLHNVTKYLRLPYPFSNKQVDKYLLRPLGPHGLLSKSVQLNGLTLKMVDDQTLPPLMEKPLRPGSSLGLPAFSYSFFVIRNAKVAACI
Description: in-gel competitive ABPP, recombinant HPSE. Type of experiment: biochemical. As to conditions: apparent IC50, in-gel competitive ABPP-based assay; read-out: In vitro IC50 rHPSE. As to the method: ABP labelling reactions were carried out in Mcllvaine buffer (pH 5.5), 300 mM NaCl. For recombinant proteins 200 fmol of EcGH2, BpHep, AcGH79, HPSE or proHPSE was used (20 nM in 10 μl final reaction volume). For labeling cell lysates, 4-20 μg total protein was used. Labeling reactions were initiated by the addition of ABP compounds 7, 8 or 9 to a final concentration of 100 nM (unless otherwise specified), before incubation for 30 min at 37° C. with shaking. Following labeling, samples were denatured by boiling with Laemmli buffer for 5 min and resolved by SDS-PAGE. Gels were scanned using Typhoon-5 laser scanner platform (Cytiva), using the λEX 635 nm laser and 670BP30 emission filter. For competitive ABPP (cABPP) experiments, protein mixtures were preincubated with inhibitor (or buffer only control) for 1 h at 37° C. with shaking, before the addition of 7 to a final concentration of 100 nM, and subsequent incubation for 30 min at 37° C. with shaking. SDS-PAGE and analysis steps were carried out as above. For quantitative measurements, fluorescently labeled band intensities were calculated using Imagequant (Cytiva), and normalized to the corresponding band in the inhibitor free control lane. cABPP plots were prepared and analyzed using SigmaPlot 14.0 (Systat).
Competitive activity of compounds 2, 12 and 13 were investigated using cABPP Assay 2.
To gain insight into HPSE structure-activity relationships, apparent HPSE inhibition was tested for cyclitol 12, its disaccharidic analogue 13 and parent HPSE inhibitor 2 (FIG. 7a). […] Conversely, 13 could inactivate rHPSE down to 2 μM inhibitor concentration similar to 2.

Another experiment concerns the target T2, HPSE (platelet) (Homo sapiens, UniProt Q9Y251).
T2 construct: endogenous in cells; host or cells: human platelet lysates
T2 sequence (Q9Y251 158-543 limits assumed): T1 sequence (Q9Y251 158-543 limits assumed)
T2 sequence (Q9Y251 36-109 limits assumed): T1 sequence (Q9Y251 36-109 limits assumed)
The experiment can be described thus: cABPP Assay 2, platelet lysates, HPSE. In kind it is biochemical. The procedure:
(§1) For further competitive ABPP studies, a working protein mixture was prepared by mixing the platelet lysates (87.5 μL), buffer (pH 5.0, 150 mM, 157.5 μL) and 3 M NaCl solution (35 μL). The enzymatic reactions were carried out at a constant concentration of read-out 7 (100 nM, final). For each inhibitor 2, 12 and 13, triplicate sets of ten 0.5 mL low protein binding Eppendorf tubes were prepared. Working solutions of each inhibitor (1% DMSO (w/v), 5 μL) in a range of ten concentrations (100, 50, 25, 12.5, 6.3, 3.1, 1.6, 0.8, 0.4, 0 μM) were prepared with MilliQ water and kept on ice. The working protein mixture (8 μL) was added in each protein low binding 0.5 mL Eppendorf tube, and 1 μL of inhibitor solution was added while on ice.
(§2) Further cABPP studies were undertaken using platelet lysates to provide a more physiologically realistic environment. Platelet lysates contain complex mixtures of overlapping enzyme activities, including both endo- and exo-β-glucuronidases HPSE and GUSB respectively, thus provide a challenging environment to test inhibitor specificity.

Another experiment has as its target T3, GUSB (Homo sapiens, UniProt P08236).
T3 construct: Platelet lysates contain complex mixtures of overlapping enzyme activities, including both endo- and exo-β-glucuronidases HPSE and GUSB; endogenous in cells; host or cells: human platelet lysates
T3 sequence (P08236 23-651): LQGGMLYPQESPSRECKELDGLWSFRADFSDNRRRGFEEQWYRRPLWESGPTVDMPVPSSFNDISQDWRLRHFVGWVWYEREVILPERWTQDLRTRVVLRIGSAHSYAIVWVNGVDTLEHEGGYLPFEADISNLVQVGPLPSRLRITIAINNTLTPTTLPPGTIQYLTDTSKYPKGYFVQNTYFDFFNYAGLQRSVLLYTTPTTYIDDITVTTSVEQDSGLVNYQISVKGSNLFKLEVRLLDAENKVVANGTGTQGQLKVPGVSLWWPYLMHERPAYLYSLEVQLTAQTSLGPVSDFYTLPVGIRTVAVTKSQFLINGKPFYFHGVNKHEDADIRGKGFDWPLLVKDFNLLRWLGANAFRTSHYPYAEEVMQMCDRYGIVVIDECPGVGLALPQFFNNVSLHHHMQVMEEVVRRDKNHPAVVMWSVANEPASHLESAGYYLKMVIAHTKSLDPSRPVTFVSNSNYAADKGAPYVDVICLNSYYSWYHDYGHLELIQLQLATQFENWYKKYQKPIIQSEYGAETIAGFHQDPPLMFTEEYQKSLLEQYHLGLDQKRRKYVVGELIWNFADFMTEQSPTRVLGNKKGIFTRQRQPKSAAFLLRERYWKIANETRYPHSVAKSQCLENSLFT
The experiment can be described thus: cABPP Assay 2, platelet lysates, GUSB. As to conditions: preincubation with inhibitor. In kind it is biochemical. As to the method: as §1, §2

The next experiment addresses T4, HPSE (Homo sapiens, UniProt Q9Y251).
T4 sequence (Q9Y251 36-109 limits assumed): T1 sequence (Q9Y251 36-109 limits assumed)
T4 sequence (Q9Y251 158-543 limits assumed): T1 sequence (Q9Y251 158-543 limits assumed)
The experiment can be described thus: Fondaparinux cleavage assay. Type of experiment: biochemical.

The next experiment concerns CAG human myeloma cells. The experiment can be described thus: CAG myeloma metastasis model. In kind it is in vivo, NOD/SCID mice. The procedure: CAG myeloma—Luciferase-labeled CAG human myeloma cells (3×10^6) were injected into the tail vein of NOD/SCID mice. 3-5 days after cell inoculation, mice were randomly assigned to 4 cohorts (6 mice each) receiving: (a) vehicle, (b) compound 2 (i.p. 300 nmol/day), (c) bortezomib (0.5 mg/kg twice weekly) or (d) 2 plus bortezomib (dosing as for individual compounds). Tumor development was inspected (every 7 days) by IVIS imaging as detailed above. Tumor burden was quantified using Living Image software. Plots and statistical analyses were carried out in Prism 9 (Graphpad software).

The term IC50 denotes the concentration that gives 50% inhibition. On to `CC(=O)NC1C(O)[C@H](O)C(CO)O[C@@H]1O[C@H]1C(O)C(O)[C@@H]2OC2C1C(=O)O` (stereo partly drawn) [Compound 2, 4-O-(2-N-acetyl-2-deoxy-D-glucopyranosyl)-glucurono-cyclophellitol], for which the IC50 was 300 ± 200 nM on rHPSE and 900 ± 300 nM on HPSE (platelet) (apparent IC50, in-gel competitive ABPP-based assay, platelet lysate, read-out: In vitro IC50 HPSE (platelet)). The “inhibitor concentration down to which HPSE signal is abrogated” value on HPSE (platelet) (platelet lysates, preincubation with inhibitor) came to 2.5 µM. Besides, on GUSB, the “effect on GUS signals” value was “without altering GUS signals”. In addition, the “fold more potent than reference inhibitors #98 (10) and OGT2115 (11)” value at HPSE was “approximately 2 fold”. For the same compound, the “metastatic burden (CAG myeloma)” value in the experiment with CAG human myeloma cells (2: i.p. 300 nmol/day, bortezomib 0.5 mg/kg twice weekly, IVIS imaging) is “marked reduction in metastatic burden”. The “efficacy at prolonged treatment (CAG myeloma)” value in the experiment with CAG human myeloma cells (33 day timepoint) is on record as “lower efficacy following prolonged treatment”.
